Assay results from the NIST ThermoML archive (doi:10.1016/j.jct.2017.05.001).

Test: wn = mass fraction of the nth substance listed
Conditions: Liquid; for mass density: Vibrating tube method

OCCN(CCO)CCO [triethanolamine] + O
mass density [kg/m3]
Conditions | w1 = 0.0992 | w1 = 0.2 | w1 = 0.2991 | w1 = 0.4
333.15 K, 130000 kPa | 1045.8 | 1059 | 1072.9 | 1088.3
333.15 K, 140000 kPa | 1049.1 | 1062.4 | 1076 | 1091.4
353.15 K, 100 kPa | 985.7 | 999.5 | 1013.6 | 1029.7
353.15 K, 500 kPa | 985.7 | 999.6 | 1013.7 | 1029.8
353.15 K, 1000 kPa | 985.9 | 999.8 | 1013.9 | 1030
353.15 K, 2000 kPa | 986.4 | 1000.1 | 1014.3 | 1030.4
353.15 K, 5000 kPa | 987.7 | 1001.5 | 1015.6 | 1031.7
353.15 K, 10000 kPa | 989.9 | 1003.7 | 1017.8 | 1033.9
353.15 K, 15000 kPa | 992.1 | 1005.8 | 1019.9 | 1035.8
353.15 K, 20000 kPa | 994.1 | 1007.8 | 1021.9 | 1037.9
353.15 K, 30000 kPa | 998.2 | 1011.9 | 1025.9 | 1041.9
353.15 K, 40000 kPa | 1002.4 | 1015.9 | 1029.9 | 1045.8
353.15 K, 50000 kPa | 1006.2 | 1019.8 | 1033.8 | 1049.5
353.15 K, 60000 kPa | 1010.2 | 1023.7 | 1037.6 | 1053.3
353.15 K, 70000 kPa | 1014 | 1027.4 | 1041.2 | 1056.9
353.15 K, 80000 kPa | 1017.6 | 1031.1 | 1044.8 | 1060.4
353.15 K, 90000 kPa | 1021.2 | 1034.5 | 1048.3 | 1063.8
353.15 K, 100000 kPa | 1024.8 | 1038.1 | 1051.8 | 1067.2
353.15 K, 110000 kPa | 1028.4 | 1041.5 | 1055.2 | 1070.5
353.15 K, 120000 kPa | 1031.8 | 1044.9 | 1058.5 | 1073.9
353.15 K, 130000 kPa | 1035.2 | 1048.2 | 1061.8 | 1077.1
353.15 K, 140000 kPa | 1038.4 | 1051.5 | 1065 | 1080.1
373.15 K, 100 kPa | 971.7 | 985.1 | 999.2 | 1014.6
373.15 K, 500 kPa | 971.9 | 985.3 | 999.3 | 1014.8
373.15 K, 1000 kPa | 972.2 | 985.5 | 999.6 | 1015
373.15 K, 2000 kPa | 972.6 | 986.1 | 1000.1 | 1015.5
373.15 K, 5000 kPa | 973.9 | 987.4 | 1001.5 | 1016.8
373.15 K, 10000 kPa | 976.3 | 989.7 | 1003.8 | 1019.1
373.15 K, 15000 kPa | 978.5 | 991.9 | 1006 | 1021.2
373.15 K, 20000 kPa | 980.6 | 994 | 1008.2 | 1023.4
373.15 K, 30000 kPa | 985.1 | 998.4 | 1012.5 | 1027.7
373.15 K, 40000 kPa | 989.4 | 1002.6 | 1016.8 | 1032
373.15 K, 50000 kPa | 993.4 | 1006.7 | 1020.7 | 1035.7
373.15 K, 60000 kPa | 997.4 | 1010.6 | 1024.6 | 1039.7
373.15 K, 70000 kPa | 1001.4 | 1014.5 | 1028.4 | 1043.5
373.15 K, 80000 kPa | 1005.3 | 1018.5 | 1032.4 | 1047.3
373.15 K, 90000 kPa | 1009.1 | 1022.1 | 1036 | 1050.8
373.15 K, 100000 kPa | 1012.7 | 1025.7 | 1039.5 | 1054.3
373.15 K, 110000 kPa | 1016.4 | 1029.4 | 1043.1 | 1057.9
373.15 K, 120000 kPa | 1019.9 | 1032.9 | 1046.8 | 1061.3
373.15 K, 130000 kPa | 1023.3 | 1036.2 | 1050.1 | 1064.6
373.15 K, 140000 kPa | 1026.8 | 1039.7 | 1053.4 | 1067.8
393.15 K, 100 kPa | 956.1 | 969.2 | 982.9 | 998.1
393.15 K, 500 kPa | 956.4 | 969.5 | 983.3 | 998.5
393.15 K, 1000 kPa | 956.6 | 969.7 | 983.5 | 998.6
393.15 K, 2000 kPa | 957.1 | 970.2 | 984 | 999.1
393.15 K, 5000 kPa | 958.6 | 971.7 | 985.5 | 1000.6
393.15 K, 10000 kPa | 961.1 | 974.2 | 988 | 1003.1
393.15 K, 15000 kPa | 963.4 | 976.5 | 990.3 | 1005.4
393.15 K, 20000 kPa | 965.9 | 978.9 | 992.7 | 1007.8
393.15 K, 30000 kPa | 970.4 | 983.5 | 997.3 | 1012.4
393.15 K, 40000 kPa | 974.9 | 988 | 1001.8 | 1016.7
393.15 K, 50000 kPa | 979.2 | 992.3 | 1006 | 1021
393.15 K, 60000 kPa | 983.5 | 996.5 | 1010.2 | 1025.2
393.15 K, 70000 kPa | 987.7 | 1000.7 | 1014.4 | 1029.3
393.15 K, 80000 kPa | 991.7 | 1004.6 | 1018.3 | 1033.1
393.15 K, 90000 kPa | 995.7 | 1008.6 | 1022.3 | 1037.1
393.15 K, 100000 kPa | 999.4 | 1012.3 | 1026.1 | 1040.7
393.15 K, 110000 kPa | 1003.3 | 1016.1 | 1029.8 | 1044.5
393.15 K, 120000 kPa | 1006.9 | 1019.8 | 1033.4 | 1048.1
393.15 K, 130000 kPa | 1010.4 | 1023.4 | 1036.9 | 1051.5
393.15 K, 140000 kPa | 1014.1 | 1026.9 | 1040.5 | 1055

viscosity [mPa·s]
Conditions | w1 = 0.0992 | w1 = 0.1 | w1 = 0.2 | w1 = 0.2991 | w1 = 0.3 | w1 = 0.4
353.15 K, 100 kPa, Concentric cylinders viscometry | – | 0.469 | 0.569 | – | 0.81 | 1.125
353.15 K, 100 kPa, Falling or rolling sphere viscometry | 0.4585 | – | 0.5805 | 0.8052 | – | 1.124
353.15 K, 5000 kPa, Falling or rolling sphere viscometry | 0.451 | – | 0.5825 | 0.7994 | – | 1.125
353.15 K, 10000 kPa, Falling or rolling sphere viscometry | 0.4541 | – | 0.5878 | 0.8046 | – | 1.136
353.15 K, 15000 kPa, Falling or rolling sphere viscometry | 0.4547 | – | 0.5898 | 0.811 | – | 1.146
353.15 K, 20000 kPa, Falling or rolling sphere viscometry | 0.4578 | – | 0.5937 | 0.8144 | – | 1.154
353.15 K, 25000 kPa, Falling or rolling sphere viscometry | 0.4595 | – | 0.5975 | 0.821 | – | 1.164
353.15 K, 30000 kPa, Falling or rolling sphere viscometry | 0.4619 | – | 0.6006 | 0.8266 | – | 1.173
353.15 K, 40000 kPa, Falling or rolling sphere viscometry | 0.466 | – | 0.6068 | 0.8374 | – | 1.193
353.15 K, 60000 kPa, Falling or rolling sphere viscometry | 0.4738 | – | 0.6185 | 0.8576 | – | 1.229
353.15 K, 80000 kPa, Falling or rolling sphere viscometry | 0.4813 | – | 0.6313 | 0.8785 | – | 1.266
353.15 K, 100000 kPa, Falling or rolling sphere viscometry | 0.4891 | – | 0.6459 | 0.9019 | – | 1.306
373.15 K, 5000 kPa, Falling or rolling sphere viscometry | 0.3584 | – | 0.444 | 0.5867 | – | 0.7909
373.15 K, 10000 kPa, Falling or rolling sphere viscometry | 0.356 | – | 0.4475 | 0.5894 | – | 0.8001
373.15 K, 15000 kPa, Falling or rolling sphere viscometry | 0.3581 | – | 0.451 | 0.5951 | – | 0.809
373.15 K, 20000 kPa, Falling or rolling sphere viscometry | 0.3595 | – | 0.4534 | 0.5996 | – | 0.819
373.15 K, 25000 kPa, Falling or rolling sphere viscometry | 0.3618 | – | 0.4562 | 0.6046 | – | 0.8242
373.15 K, 30000 kPa, Falling or rolling sphere viscometry | 0.3632 | – | 0.4601 | 0.6109 | – | 0.8363
373.15 K, 40000 kPa, Falling or rolling sphere viscometry | 0.3659 | – | 0.4638 | 0.6193 | – | 0.8525
373.15 K, 60000 kPa, Falling or rolling sphere viscometry | 0.3738 | – | 0.4753 | 0.6379 | – | 0.8789
373.15 K, 80000 kPa, Falling or rolling sphere viscometry | 0.3807 | – | 0.4864 | 0.655 | – | 0.9114
373.15 K, 100000 kPa, Falling or rolling sphere viscometry | 0.3871 | – | 0.4953 | 0.6721 | – | 0.9403
393.15 K, 5000 kPa, Falling or rolling sphere viscometry | 0.2913 | – | 0.3551 | 0.4515 | – | 0.5873
393.15 K, 10000 kPa, Falling or rolling sphere viscometry | 0.2912 | – | 0.3579 | 0.4583 | – | 0.5948
393.15 K, 15000 kPa, Falling or rolling sphere viscometry | 0.2933 | – | 0.3633 | 0.4629 | – | 0.6019
393.15 K, 20000 kPa, Falling or rolling sphere viscometry | 0.295 | – | 0.362 | 0.4675 | – | 0.609
393.15 K, 25000 kPa, Falling or rolling sphere viscometry | 0.2963 | – | 0.3674 | 0.4703 | – | 0.6136
393.15 K, 30000 kPa, Falling or rolling sphere viscometry | 0.2988 | – | 0.3659 | 0.4738 | – | 0.6246
393.15 K, 40000 kPa, Falling or rolling sphere viscometry | 0.3022 | – | 0.3704 | 0.4822 | – | 0.6362
393.15 K, 60000 kPa, Falling or rolling sphere viscometry | 0.308 | – | 0.3798 | 0.4973 | – | 0.6588
393.15 K, 80000 kPa, Falling or rolling sphere viscometry | 0.3138 | – | 0.3888 | 0.5121 | – | 0.6835
393.15 K, 100000 kPa, Falling or rolling sphere viscometry | 0.32 | – | 0.3982 | 0.5378 | – | 0.7054
